Data from US11180462B2, “Microbiocidal oxadiazole derivatives” (SYNGENTA PARTICIPATIONS AG, priority 2015, dated 2021).

Legend:
[1] = system: Phakopsora Pachyrhizi; assay: Fungicidal activity against Phakopsora pachyrhizi / soybean / leaf disc preventative (Asian soybean rust); assay type: in vivo; conditions: foliar, 200 ppm in the applied formulation, soybean leaf disks, compared to untreated control leaf disks, read-out: disease control
Description: Leaf disks or leaf segments of various plant species are cut from plants grown in a greenhouse. The cut leaf disks or segments are placed in multiwell plates (24-well format) onto water agar. The leaf disks are sprayed with a test solution before (preventative) or after (curative) inoculation. Compounds to be tested are prepared as DMSO solutions (max. 10 mg/ml) which are diluted to the appropriate concentration with 0.025% Tween20 just before spraying. The inoculated leaf disks or segments are incubated under defined conditions (temperature, relative humidity, light, etc.) according to the respective test system. A single evaluation of disease level is carried out 3 to 14 days after inoculation, depending on the pathosystem. Percent disease control relative to the untreated check leaf disks or segments is then calculated.
Fungicidal Activity Against Phakopsora Pachyrhizi Soybean/Leaf Disc Preventative (Asian Soybean Rust)
Soybean leaf disks are placed on water agar in multiwell plates (24-well format) and sprayed with the formulated test compound diluted in water. One day after application leaf discs are inoculated by spraying a spore suspension on the lower leaf surface. After an incubation period in a climate cabinet of 24-36 hours in darkness at 20° C. and 75% rh leaf disc are kept at 20° C. with 12 h light/day and 75% rh. The activity of a compound is assessed as percent disease control compared to untreated when an appropriate level of disease damage appears in untreated check leaf disks (12 to 14 days after application).
The following compounds at 200 ppm in the applied formulation give at least 80% disease control in this test when compared to untreated control leaf disks under the same conditions, which show extensive disease development.

[2] = system: Glomerella lagenarium (Colletotrichum lagenarium); assay: Fungicidal activity against Glomerella lagenarium (Colletotrichum lagenarium) liquid culture / cucumber / preventative (anthracnose); assay type: cell-based; conditions: Colletotrichum orbiculare; 20 ppm in the applied formulation; liquid culture (PDB), growth inhibition measured photometrically after 3 to 4 days; compared to untreated control; read-out: disease control
In short: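 Photometric read-out of fungal growth after 2–7 days, expressed as percent antifungal activity versus untreated check. Cryo-stored conidia in PDB; compound at 20 ppm; dark, 24 °C, 96% RH.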

CCC(C)(CC)C(=O)N(Cc1ccc(-c2noc(C(F)(F)F)n2)cc1)OC [Compound 1.58, 2-ethyl-N-methoxy-2-methyl-N-[[4-[5-(trifluoromethyl)-1,2,4-oxadiazol-3-yl]phenyl]methyl]-butanamide]
pest or weed control at 200 ppm [1]: ≥ 80% | inhibition of growth at 20 ppm [2]: ≥ 80%

CCC(CC(=O)N(Cc1ccc(-c2noc(C(F)(F)F)n2)cc1)OC)C(F)(F)F (centres unmarked) [Compound 1.82, N-methoxy-3-(trifluoromethyl)-N-[[4-[5-(trifluoromethyl)-1,2,4-oxadiazol-3-yl]phenyl]methyl]-pentamide]
pest or weed control at 200 ppm [1]: ≥ 80% | inhibition of growth at 20 ppm [2]: ≥ 80%

O=C(CC1CCCC1)N(Cc1ccc(-c2noc(C(F)(F)F)n2)cc1)C1CC1 [Compound 1.84, 2-cyclopentyl-N-cyclopropyl-N-[[4-[5-(trifluoromethyl)-1,2,4-oxadiazol-3-yl]phenyl]methyl]-acetamide]
pest or weed control at 200 ppm [1]: ≥ 80% | inhibition of growth at 20 ppm [2]: ≥ 80%

C#CCN(Cc1ccc(-c2noc(C(F)(F)F)n2)cc1)C(=O)C1CC1c1ccccc1 (centres unmarked) [Compound 1.166, 2-phenyl-N-prop-2-ynyl-N-[[4-[5-(trifluoromethyl)-1,2,4-oxadiazol-3-yl]phenyl]methyl]-cyclopropane-carboxamide]
pest or weed control at 200 ppm [1]: ≥ 80% | inhibition of growth at 20 ppm [2]: ≥ 80%

C#CCN(Cc1ccc(-c2noc(C(F)(F)F)n2)cc1)C(=O)C(C)(CC)CC [Compound 1.195, 2-ethyl-2-methyl-N-prop-2-ynyl-N-[[4-[5-(trifluoromethyl)-1,2,4-oxadiazol-3-yl]phenyl]methyl]-butanamide]
pest or weed control at 200 ppm [1]: ≥ 80% | inhibition of growth at 20 ppm [2]: ≥ 80%

C#CCN(Cc1ccc(-c2noc(C(F)(F)F)n2)cc1)C(=O)CC1CC1(F)F (centres unmarked) [Compound 1.197, 2-(2,2-difluorocyclopropyl)-N-prop-2-ynyl-N-[[4-[5-(trifluoromethyl)-1,2,4-oxadiazol-3-yl]phenyl]methyl]-acetamide]
pest or weed control at 200 ppm [1]: ≥ 80%

O=C(CC(F)(F)F)N(Cc1ccc(-c2noc(C(F)(F)F)n2)cc1)CC1CC1 [Compound 1.220, N-(cyclopropylmethyl)-3,3,3-trifluoro-N-[[4-[5-(trifluoromethyl)-1,2,4-oxadiazol-3-yl]phenyl]methyl]-propanamide]
pest or weed control at 200 ppm [1]: ≥ 80% | inhibition of growth at 20 ppm [2]: ≥ 80%

CC(C)(C)CC(=O)N(Cc1ccc(-c2noc(C(F)(F)F)n2)cc1)CC1CC1 [Compound 1.224, N-(cyclopropylmethyl)-3,3-dimethyl-N-[[4-[5-(trifluoromethyl)-1,2,4-oxadiazol-3-yl]phenyl]methyl]-butanamide]
pest or weed control at 200 ppm [1]: ≥ 80% | inhibition of growth at 20 ppm [2]: ≥ 80%

C#CCOC(=O)NC(C(=O)N(Cc1ccc(-c2noc(C(F)(F)F)n2)cc1)CC1CC1)C(C)C (centres unmarked) [Compound 1.241, prop-2-ynyl N-[1-(cyclopropylmethyl-[[4-[5-(trifluoromethyl)-1,2,4-oxadiazol-3-yl]phenyl]methyl]-carbamoyl]-2-methyl-propyl]carbamate]
pest or weed control at 200 ppm [1]: ≥ 80%

O=C(C1CC1)N(Cc1ccc(-c2noc(C(F)(F)F)n2)cc1)CC1CC1 [Compound 1.246, N-(cyclopropylmethyl)-N-[[4-[5-(trifluoromethyl)-1,2,4-oxadiazol-3-yl]phenyl]methyl]-cyclopropane-carboxamide]
pest or weed control at 200 ppm [1]: ≥ 80% | inhibition of growth at 20 ppm [2]: ≥ 80%

O=C(OCCN(Cc1ccc(-c2noc(C(F)(F)F)n2)cc1)C(=O)c1ccccc1Cl)c1ccccc1Cl [Compound 1.710, 2-[(2-chlorobenzoyl)-[[4-[5-(trifluoromethyl)-1,2,4-oxadiazol-3-yl]phenyl]methyl]-amino]ethyl 2-chlorobonzoato]
pest or weed control at 200 ppm [1]: ≥ 80%

COCCCC(=O)N(Cc1ccc(-c2noc(C(F)(F)F)n2)cc1)C1COC1 [Compound 1.746, 4-methoxy-N-(oxetan-3-yl)-N-[[4-[5-(trifluoromethyl)-1,2,4-oxadiazol-3-yl]phenyl]methyl]-butanamide]
pest or weed control at 200 ppm [1]: ≥ 80%
